Reference: patent publication US20240409585A1, “MACROCYCLIC IMMUNOMODULATORS” (priority 2021, published 2024)
Numbered stars: 1 amine (or outer) side, 2 acyl side, 3 side chain; on linkers, the order of the positions; unused ones are H or OH. Bridge positions count the residues as written; N and C are the ends. Square brackets hold non-standard residues; d marks the D form. Peptide text beside a SMILES is read from it. * marks the point of attachment. ξ: configuration not given here. Bip(4'-COOH) = N[C@@H](Cc1ccc(-c2ccc(C(=O)O)cc2)cc1)C(=O)O; Bip(4'-NHAc) = CC(=O)Nc1ccc(-c2ccc(C[C@H](N)C(=O)O)cc2)cc1; Phe(3-CH2NH2) = O=C([C@H](Cc1cccc(CN[*:3])c1)N[*:1])[*:2]; Phe(3-CF3) = N[C@@H](Cc1cccc(C(F)(F)F)c1)C(=O)O; Ala(morpholin-4-yl) = N[C@@H](CN1CCOCC1)C(=O)O; Phe(4-CONH2) = NC(=O)c1ccc(C[C@H](N)C(=O)O)cc1; Phe(4-COOH) = N[C@@H](Cc1ccc(C(=O)O)cc1)C(=O)O; X5 = CS(=O)(=O)NC(=O)C[C@H](N[*:1])C(=O)[*:2]; X53 = O=C([C@H](Cc1cc(F)c(F)cc1F)N[*:1])[*:2]; Bip = N[C@@H](Cc1ccc(-c2ccccc2)cc1)C(=O)O; Phe(3-Me) = Cc1cccc(C[C@H](N)C(=O)O)c1; Gla = N[C@@H](CC(C(=O)O)C(=O)O)C(=O)O; Cha = N[C@@H](CC1CCCCC1)C(=O)O; Thr(3ξ) = CC(O)[C@H](N)C(=O)O; Suc = O=C(CCC(=O)[*:2])[*:1]; Carboxymethyl = O=C(O)C*; NMeA = CN[C@@H](C)C(=O)O; Orn = NCCC[C@H](N)C(=O)O; Dab = NCC[C@H](N)C(=O)O; Dap = NC[C@H](N)C(=O)O

target: T1, Alexa fluor-647 labeled human PD-L1-Ig binding to Jurkat cell line over-expressing human PD-1 (Homo sapiens, UniProt Q15116); assay: Jurkat-PD-1 Cell Binding High-Content Screening Assay (CBA): Method 3 (Alexa fluor-647 labeled PD-L1-Ig); details: Jurkat-PD-1 cells, Alexa fluor-647 labeled PD-L1-Ig 177 nM; head μM; read-out: CBA Method 3 μM
T1 construct: expressed in transfected cells; host or cells: Jurkat
T1 sequence (Q15116 25-288): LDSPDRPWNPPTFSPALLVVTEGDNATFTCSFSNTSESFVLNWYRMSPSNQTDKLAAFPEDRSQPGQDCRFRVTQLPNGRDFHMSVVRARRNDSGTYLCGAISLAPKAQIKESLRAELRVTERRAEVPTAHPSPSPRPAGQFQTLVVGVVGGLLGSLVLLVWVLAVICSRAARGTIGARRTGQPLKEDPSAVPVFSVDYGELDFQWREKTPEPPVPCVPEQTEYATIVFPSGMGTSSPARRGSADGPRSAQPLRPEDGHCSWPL
In short: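 Jurkat cells over-expressing human PD-1 in RPMI/10% FCS were preincubated 2 h at 37 °C with compound, then exposed 1 h to Alexa fluor-647 labeled human PD-L1-Ig (177 nM final). Cells fixed in 4% paraformaldehyde with Hoechst 33342 and binding quantified by high-content imaging.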

SMILES | IC50
CC(=O)Nc1ccc(-c2ccc(C[C@@H]3NC(=O)[C@H](Cc4cccc(C(F)(F)F)c4)NC(=O)[C@H](CC(=O)NS(C)(=O)=O)NC(=O)[C@H](Cc4ccc(C(N)=O)cc4)NC(=O)[C@H](CC(C)C)NC(=O)CSC[C@@H](C(=O)N[C@@H](CCN)C(N)=O)NC(=O)[C@H](CC(N)=O)NC(=O)[C@H](C(C)C)NC(=O)[C@H](CC4CCCCC4)NC(=O)[C@H](CCN)NC(=O)[C@@H](CC(C)C)NC(=O)[C@H](C)N(C)C(=O)[C@H](Cc4ccc(C(N)=O)cc4)NC(=O)[C@H](Cc4ccc(-c5ccccc5)cc4)NC3=O)cc2)cc1 [Example 5114] ({CH2CO}-L[Phe(4-CONH2)][X5][Phe(3-CF3)][Bip(4'-NHAc)][Bip][Phe(4-CONH2)][NMeA][dL][Dab][Cha]VNC[Dab]-NH2; thioether N-14) | 0.11 µM
CC(=O)Nc1ccc(-c2ccc(C[C@@H]3NC(=O)[C@H](Cc4cccc(C(F)(F)F)c4)NC(=O)[C@H](CC(=O)O)NC(=O)[C@H](Cc4ccc(C(=O)O)cc4)NC(=O)[C@H](CCN)NC(=O)CSC[C@@H](C(=O)N[C@@H](CCN)C(N)=O)NC(=O)[C@H](CC(N)=O)NC(=O)[C@H](C(C)C)NC(=O)[C@H](CC4CCCCC4)NC(=O)[C@H](CCN)NC(=O)[C@@H](CC(C)C)NC(=O)[C@H](C)N(C)C(=O)[C@H](Cc4ccc(C(N)=O)cc4)NC(=O)[C@H](Cc4ccc(-c5ccccc5)cc4)NC3=O)cc2)cc1 [Example 5098] ({CH2CO}-[Dab][Phe(4-COOH)]D[Phe(3-CF3)][Bip(4'-NHAc)][Bip][Phe(4-CONH2)][NMeA][dL][Dab][Cha]VNC[Dab]-NH2; thioether N-14) | 0.01 µM

Second part, the molecule after the results:

IC50 | SMILES
0.3 µM | Cc1cccc(C[C@@H]2NC(=O)[C@H](CC(=O)O)NC(=O)[C@H](Cc3ccc(OCC(=O)O)cc3)NC(=O)[C@H](CN)NC(=O)CSC[C@@H](C(=O)N[C@@H](CCN)C(N)=O)NC(=O)[C@H](CCCN)NC(=O)[C@H](C(C)C)NC(=O)[C@H](CC3CCCCC3)NC(=O)[C@H](CCN)NC(=O)[C@@H](CC(C)C)NC(=O)[C@H](C)N(C)C(=O)[C@H](CCC(N)=O)NC(=O)[C@H](Cc3ccc(-c4ccccc4)cc3)NC(=O)[C@H](Cc3ccc(C(=O)O)cc3)NC2=O)c1 [Example 5178] ({CH2CO}-[Dap]Y(Carboxymethyl)D[Phe(3-Me)][Phe(4-COOH)][Bip]Q[NMeA][dL][Dab][Cha]V[Orn]C[Dab]-NH2; thioether N-14)
0.01 µM | CC(C)C[C@H]1NC(=O)[C@H](C)N(C)C(=O)[C@H](CCC(N)=O)NC(=O)[C@H](Cc2ccc(-c3ccccc3)cc2)NC(=O)[C@H](Cc2ccc(OCC(=O)O)cc2)NC(=O)[C@H](Cc2cccc(C(F)(F)F)c2)NC(=O)[C@H](CC(=O)O)NC(=O)[C@H](Cc2ccc(O)cc2)NC(=O)[C@H](CC2CCCCC2)NC(=O)CSC[C@@H](C(=O)N[C@@H](CCN)C(N)=O)NC(=O)[C@H](CCCN)NC(=O)[C@H](C(C)C)NC(=O)[C@H](CC2CCCCC2)NC(=O)[C@H](CCN)NC1=O [Example 5238] ({CH2CO}-[Cha]YD[Phe(3-CF3)]Y(Carboxymethyl)[Bip]Q[NMeA][dL][Dab][Cha]V[Orn]C[Dab]-NH2; thioether N-14)
0.01 µM | Cc1cccc(C[C@@H]2NC(=O)[C@H](CC(=O)O)NC(=O)[C@H](Cc3ccc(OCC(=O)O)cc3)NC(=O)[C@H](Cc3cccc(CN)c3)NC(=O)CSC[C@@H](C(=O)N[C@@H](CCN)C(N)=O)NC(=O)[C@H](CCCN)NC(=O)[C@H](C(C)C)NC(=O)[C@H](CC3CCCCC3)NC(=O)[C@H](CCN)NC(=O)[C@@H](CC(C)C)NC(=O)[C@H](C)N(C)C(=O)[C@H](CCC(N)=O)NC(=O)[C@H](Cc3ccc(-c4ccccc4)cc3)NC(=O)[C@H](Cc3ccc(C(=O)O)cc3)NC2=O)c1 [Example 5176] ({CH2CO}-[Phe(3-CH2NH2)]Y(Carboxymethyl)D[Phe(3-Me)][Phe(4-COOH)][Bip]Q[NMeA][dL][Dab][Cha]V[Orn]C[Dab]-NH2; thioether N-14)
0.1 µM | Cc1cccc(C[C@@H]2NC(=O)[C@H](CC(=O)O)NC(=O)[C@H](Cc3ccc(OCC(=O)O)cc3)NC(=O)[C@H](Cc3cc(F)c(F)cc3F)NC(=O)CSC[C@@H](C(=O)N[C@@H](CCN)C(N)=O)NC(=O)[C@H](CCCN)NC(=O)[C@H](C(C)C)NC(=O)[C@H](CC3CCCCC3)NC(=O)[C@H](CCN)NC(=O)[C@@H](CC(C)C)NC(=O)[C@H](C)N(C)C(=O)[C@H](CCC(N)=O)NC(=O)[C@H](Cc3ccc(-c4ccccc4)cc3)NC(=O)[C@H](Cc3ccc(C(=O)O)cc3)NC2=O)c1 [Example 5290] ({CH2CO}-[X53]Y(Carboxymethyl)D[Phe(3-Me)][Phe(4-COOH)][Bip]Q[NMeA][dL][Dab][Cha]V[Orn]C[Dab]-NH2; thioether N-14)
0.01 µM | Cc1cccc(C[C@@H]2NC(=O)[C@H](CC(=O)O)NC(=O)[C@H](Cc3ccc(OCC(=O)O)cc3)NC(=O)[C@H](CC3CCCCC3)NC(=O)CSC[C@@H](C(=O)N[C@@H](CCN)C(N)=O)NC(=O)[C@H](CCCN)NC(=O)[C@H](C(C)C)NC(=O)[C@H](CC3CCCCC3)NC(=O)[C@H](CCN)NC(=O)[C@@H](CC(C)C)NC(=O)[C@H](C)N(C)C(=O)[C@H](CCC(N)=O)NC(=O)[C@H](Cc3ccc(-c4ccccc4)cc3)NC(=O)[C@H](Cc3ccc(C(=O)O)cc3)NC2=O)c1 [Example 5174] ({CH2CO}-[Cha]Y(Carboxymethyl)D[Phe(3-Me)][Phe(4-COOH)][Bip]Q[NMeA][dL][Dab][Cha]V[Orn]C[Dab]-NH2; thioether N-14)

same assay, conditions: Jurkat-PD-1 cells, Alexa fluor-647 labeled PD-L1-Ig 177 nM; nM; read-out: CBA Method 3

SMILES | IC50
CC(C)C[C@H]1NC(=O)[C@H](C)N(C)C(=O)[C@H](Cc2ccc(OCC(=O)O)cc2)NC(=O)[C@H](Cc2ccc(-c3ccccc3)cc2)NC(=O)[C@H](Cc2ccc(C(=O)O)cc2)NC(=O)[C@H](Cc2cccc(C(F)(F)F)c2)NC(=O)[C@H](CC(=O)O)NC(=O)[C@H](Cc2ccc(OCC(=O)O)cc2)NC(=O)[C@H](C(C)O)NC(=O)CSC[C@@H](C(=O)N[C@@H](CCN)C(N)=O)NC(=O)[C@H]([C@@H](C)O)NC(=O)[C@H](C(C)C)NC(=O)[C@H](CC2CCCCC2)NC(=O)[C@H](CCN)NC1=O (stereo partly drawn) [Example 5143] ({CH2CO}-[Thr(3ξ)]Y(Carboxymethyl)D[Phe(3-CF3)][Phe(4-COOH)][Bip]Y(Carboxymethyl)[NMeA][dL][Dab][Cha]VTC[Dab]-NH2; thioether N-14) | 0.007 µM
CC(C)C[C@H]1NC(=O)[C@H](C)N(C)C(=O)[C@H](CCCN)NC(=O)[C@H](Cc2ccc(-c3ccccc3)cc2)NC(=O)[C@H](Cc2ccc(-c3ccc(C(=O)O)cc3)cc2)NC(=O)[C@H](Cc2cccc(C(F)(F)F)c2)NC(=O)[C@H](CC(=O)O)NC(=O)[C@H](Cc2ccc(-c3ccc(C(=O)O)cc3)cc2)NC(=O)[C@H](Cc2ccc(OCC(=O)O)cc2)NC(=O)CSC[C@@H](C(=O)N[C@@H](CCN)C(N)=O)NC(=O)[C@H](CCC(N)=O)NC(=O)[C@H](C(C)C)NC(=O)[C@H](CC2CCCCC2)NC(=O)[C@H](CCN)NC1=O [Example 5120] ({CH2CO}-Y(Carboxymethyl)[Bip(4'-COOH)]D[Phe(3-CF3)][Bip(4'-COOH)][Bip][Orn][NMeA][dL][Dab][Cha]VQC[Dab]-NH2; thioether N-14) | 0.0056 µM
Cc1cccc(C[C@@H]2NC(=O)[C@H](CC(=O)O)NC(=O)[C@H](Cc3ccc(C(=O)O)cc3)NC(=O)[C@H](CC3CCCCC3)NC(=O)CSC[C@@H](C(=O)N[C@@H](CCN)C(N)=O)NC(=O)[C@H](CCC(=O)O)NC(=O)[C@H](C(C)C)NC(=O)[C@H](CC3CCCCC3)NC(=O)[C@H](CCN)NC(=O)[C@@H](CC(C)C)NC(=O)[C@H](C)N(C)C(=O)[C@H](Cc3ccc(C(=O)O)cc3)NC(=O)[C@H](Cc3ccc(-c4ccccc4)cc3)NC(=O)[C@H](Cc3ccc(C(=O)O)cc3)NC2=O)c1 [Example 5196] ({CH2CO}-[Cha][Phe(4-COOH)]D[Phe(3-Me)][Phe(4-COOH)][Bip][Phe(4-COOH)][NMeA][dL][Dab][Cha]VEC[Dab]-NH2; thioether N-14) | 0.0072 µM
CC(C)C[C@H]1NC(=O)[C@H](C)N(C)C(=O)[C@H](Cc2ccc(C(=O)O)cc2)NC(=O)[C@H](Cc2ccc(-c3ccccc3)cc2)NC(=O)[C@H](Cc2ccc(C(=O)O)cc2)NC(=O)[C@H](Cc2cccc(C(F)(F)F)c2)NC(=O)[C@H](CC(=O)O)NC(=O)[C@H](Cc2ccc(C(=O)O)cc2)NC(=O)[C@H](CN2CCOCC2)NC(=O)CSC[C@@H](C(=O)N[C@@H](CCN)C(N)=O)NC(=O)[C@H](CNC(=O)CCC(=O)O)NC(=O)[C@H](C(C)C)NC(=O)[C@H](CC2CCCCC2)NC(=O)[C@H](CCN)NC1=O [Example 5144] ({CH2CO}-[Ala(morpholin-4-yl)][Phe(4-COOH)]D[Phe(3-CF3)][Phe(4-COOH)][Bip][Phe(4-COOH)][NMeA][dL][Dab][Cha]V[Dap](Suc)C[Dab]-NH2; thioether N-14) | 0.0097 µM

Next, values leading:

IC50 | SMILES
0.0035 µM | Cc1cccc(C[C@@H]2NC(=O)[C@H](CC(=O)O)NC(=O)[C@H](Cc3ccc(OCC(=O)O)cc3)NC(=O)[C@H](CN3CCOCC3)NC(=O)CSC[C@@H](C(=O)N[C@@H](CCN)C(N)=O)NC(=O)[C@H](CCC(N)=O)NC(=O)[C@H](C(C)C)NC(=O)[C@H](CC3CCCCC3)NC(=O)[C@H](CCN)NC(=O)[C@@H](CC(C)C)NC(=O)[C@H](C)N(C)C(=O)[C@H](CCC(N)=O)NC(=O)[C@H](Cc3ccc(-c4ccccc4)cc3)NC(=O)[C@H](Cc3ccc(OCC(=O)O)cc3)NC2=O)c1 [Example 5224] ({CH2CO}-[Ala(morpholin-4-yl)]Y(Carboxymethyl)D[Phe(3-Me)]Y(Carboxymethyl)[Bip]Q[NMeA][dL][Dab][Cha]VQC[Dab]-NH2; thioether N-14)
0.0089 µM | Cc1cccc(C[C@@H]2NC(=O)[C@H](CC(=O)O)NC(=O)[C@H](Cc3ccc(OCC(=O)O)cc3)NC(=O)[C@H](CC(C(=O)O)C(=O)O)NC(=O)CSC[C@@H](C(=O)N[C@@H](CCN)C(N)=O)NC(=O)[C@H](CCCN)NC(=O)[C@H](C(C)C)NC(=O)[C@H](CC3CCCCC3)NC(=O)[C@H](CCN)NC(=O)[C@@H](CC(C)C)NC(=O)[C@H](C)N(C)C(=O)[C@H](CCC(N)=O)NC(=O)[C@H](Cc3ccc(-c4ccccc4)cc3)NC(=O)[C@H](Cc3ccc(C(=O)O)cc3)NC2=O)c1 [Example 5169] ({CH2CO}-[Gla]Y(Carboxymethyl)D[Phe(3-Me)][Phe(4-COOH)][Bip]Q[NMeA][dL][Dab][Cha]V[Orn]C[Dab]-NH2; thioether N-14)
